Assay results reported in patent US11066414B2, “Cot modulators and methods of use thereof” (Gilead Sciences, Inc., priority 2015, dated 2021).
Like-named read-outs stand apart in the source and are kept apart here.

Tested on: TNFα
Assay: Cot Monocyte TNFα Cell Based Assay
[1] = Homo sapiens, Monocyte, read-out: EC50 TNF, LPS-stimulated human monocytes, TNFα
[2] = read-out: EC50 TNF, LPS-stimulated human monocytes, TNFα

SMILES	EC50 [1] [nM]	EC50 [2] [nM]
Cc1ocnc1[C@H](Nc1cc(Cl)c2ncc(C#N)c(Nc3ccc(F)c(Cl)c3)c2c1)c1cn(C2CCN(C(C)(C)C)CC2)nn1 [Example 263, (S)-6-(((1-(1-(tert-butyl)piperidin-4-yl)-1H-1,2,3-triazol-4-yl)(5-methyloxazol-4-yl)methyl)amino)-8-chloro-4-((3-chloro-4-fluorophenyl)amino)quinoline-3-carbonitrile]	242	–
Cc1ncoc1[C@H](Nc1cc(Cl)c2ncc(C#N)c(Nc3ccc(F)c(Cl)c3)c2c1)c1cn(C2CCN(C(C)(C)C)CC2)nn1 [Example 265, (R)-6-(((1-(1-(tert-butyl)piperidin-4-yl)-1H-1,2,3-triazol-4-yl)(4-methyloxazol-5-yl)methyl)amino)-8-chloro-4-((3-chloro-4-fluorophenyl)amino)quinoline-3-carbonitrile]	426	–
Cc1ncccc1[C@H](Nc1cc(Cl)c2ncc(C#N)c(Nc3ccc(F)c(Cl)c3)c2c1)c1cn(COC(=O)C(C)(C)C)nn1 [Example 274, (S)-(4-(((8-chloro-4-((3-chloro-4-fluorophenyl)amino)-3-cyanoquinolin-6-yl)amino)(2-methylpyridin-3-yl)methyl)-1H-1,2,3-triazol-1-yl)methyl pivalate]	370	–
Cc1ccc([C@H](Nc2cc(Cl)c3ncc(C#N)c(Nc4ccc(F)c(Cl)c4)c3c2)c2cn(C3CCN(C(C)(C)C)CC3)nn2)cn1 [Example 281, (S)-6-(((1-(1-(tert-butyl)piperidin-4-yl)-1H-1,2,3-triazol-4-yl)(6-methylpyridin-3-yl)methyl)amino)-8-chloro-4-((3-chloro-4-fluorophenyl)-amino)quinoline-3-carbonitrile]	575	–
CC(C)(C)N1CCC(n2cc([C@@H](Nc3cc(Cl)c4ncc(C#N)c(Nc5cncc(Cl)c5)c4c3)c3cccnc3)nn2)CC1 [Example 284, (S)-6-(((1-(1-(tert-butyl)piperidin-4-yl)-1H-1,2,3-triazol-4-yl)(pyridin-3-yl)methyl)amino)-8-chloro-4-((5-chloropyridin-3-yl)amino)quinoline-3-carbonitrile]	1300	–
Cc1cc(Cl)ncc1[C@H](Nc1cc(Cl)c2ncc(C#N)c(Nc3ccc(F)c(Cl)c3)c2c1)c1cn(C2CCN(C(C)(C)C)CC2)nn1 [Example 289]	–	837
COc1ccc([C@H](Nc2cc(Cl)c3ncc(C#N)c(Nc4ccc(F)c(Cl)c4)c3c2)c2cn(C3CCN(C(C)(C)C)CC3)nn2)cn1 [Example 290, (S)-6-(((1-(1-(tert-butyl)piperidin-4-yl)-1H-1,2,3-triazol-4-yl)(6-methoxy-pyridin-3-yl)methyl)amino)-8-chloro-4-((3-chloro-4-fluorophenyl)amino)-quinoline-3-carbonitrile]	185	–
CC(C)Oc1ncccc1[C@H](Nc1cc(Cl)c2ncc(C#N)c(Nc3ccc(F)c(Cl)c3)c2c1)c1cn(C2CCN(C(C)(C)C)CC2)nn1 [Example 291, (S)-6-(((1-(1-(tert-butyl)piperidin-4-yl)-1H-1,2,3-triazol-4-yl)(2-isopro-poxypyridin-3-yl)methyl)amino)-8-chloro-4-((3-chloro-4-fluorophenyl)-amino)quinoline-3-carbonitrile]	–	478
CC(C)(C)N1CCC(n2cc([C@@H](Nc3cc(Cl)c4ncc(C#N)c(Nc5ccc(F)c(Cl)c5)c4c3)c3cnc(F)c(F)c3)nn2)CC1 [Example 292, (S)-6-(((1-(1-(tert-butyl)piperidin-4-yl)-1H-1,2,3-triazol-4-yl)(5,6-difluoropyridin-3-yl)methyl)amino)-8-chloro-4-((3-chloro-4-fluorophenyl)amino)quinoline-3-carbonitrile]	327	–
N#Cc1cnc2c(Cl)cc(N[C@@H](c3cccnc3)c3cn(C4CCN(C5COC5)CC4)nn3)cc2c1Nc1ccc(F)c(Cl)c1 [Example 314, (S)-8-chloro-4-((3-chloro-4-fluorophenyl)amino)-6-(((1-(1-(oxetan-3-yl)piperidin-4-yl)-1H-1,2,3-triazol-4-yl)(pyridin-3-yl)methyl)amino)quinoline-3-carbonitrile]	302	–
CCN1CCC(n2cc(C(Nc3cc(Cl)c4ncc(C#N)c(Nc5ccc(F)c(Cl)c5)c4c3)c3ncccn3)nn2)CC1 (stereo not shown) [Example 367, 8-chloro-4-((3-chloro-4-fluorophenyl)amino)-6-(((1-(1-ethylpiperidin-4-yl)-1H-1,2,3-triazol-4-yl)(pyrimidin-2-yl)methyl)-amino)quinoline-3-carbonitrile]	338	–
CC(C)(C)N1CCC(n2cc([C@@H](Nc3cc(Cl)c4ncc(C#N)c(Nc5ccc(F)c(Cl)c5)c4c3)c3cccnc3)nn2)CC1 [Example 369, (S)-6-(((1-(1-(tert-butyl)piperidin-4-yl)-1H-1,2,3-triazol-4-yl)(pyridin-3-yl)methyl)amino)-8-chloro-4-((3-chloro-4-fluorophenyl)amino)quin-oline-3-carbonitrile]	–	89
CCN1CCC(n2cc([C@@H](Nc3cc(Cl)c4ncc(C#N)c(Nc5ccc(F)c(Cl)c5)c4c3)c3cccs3)nn2)CC1 [Example 380, (R)-8-chloro-4-((3-chloro-4-fluoro-phenyl)amino)-6-(((1-(1-ethylpiperidin-4-yl)-1H-1,2,3-triazol-4-yl)(thiophen-2-yl)methyl)amino)quinoline-3-carbonitrile]	609	–
CCN1CCC(n2cc([C@@H](Nc3cc(Cl)c4ncc(C#N)c(Nc5ccc(F)c(Cl)c5)c4c3)c3ccc(Cl)s3)nn2)CC1 [Example 382, (R)-8-chloro-4-((3-chloro-4-fluoro-phenyl)amino)-6-(((5-chlorothiophen-2-yl)(1-(1-ethylpiperidin-4-yl)-1H-1,2,3-triazol-4-yl)methyl)amino)quinoline-3-carbonitrile]	768	–

Results, then the molecule that gave them:

EC50 [1] [nM]	EC50 [2] [nM]	SMILES
28800	–	Cn1cnc([C@H](Nc2cc(Cl)c3ncc(C#N)c(Nc4ccc(F)c(Cl)c4)c3c2)c2c[nH]nn2)c1 [Example 266, (S)-8-chloro-4-((3-chloro-4-fluorophenyl)amino)-6-(((1-methyl-1H-imidazol-4-yl)(1H-1,2,3-triazol-4-yl)methyl)amino)-quinoline-3-carbonitrile]
234	–	Cn1ccc([C@H](Nc2cc(Cl)c3ncc(C#N)c(Nc4ccc(F)c(Cl)c4)c3c2)c2cn(C3CCN(C(C)(C)C)CC3)nn2)n1 [Example 268, (R)-6-(((1-(1-(tert-butyl)piperidin-4-yl)-1H-1,2,3-triazol-4-yl)(1-methyl-1H-pyrazol-3-yl)methyl)amino)-8-chloro-4-((3-chloro-4-fluorophenyl)-amino)quinoline-3-carbonitrile]
297	–	Cc1ncccc1[C@H](Nc1cc(Cl)c2ncc(C#N)c(Nc3ccc(F)c(Cl)c3)c2c1)c1c[nH]nn1 [Example 272, (S)-8-chloro-4-((3-chloro-4-fluorophenyl)amino)-6-(((2-methylpyridin-3-yl)(1H-1,2,3-triazol-4-yl)methyl)amino)quinoline-3-carbonitrile]
811	–	Cc1ccc([C@H](Nc2cc(Cl)c3ncc(C#N)c(Nc4ccc(F)c(Cl)c4)c3c2)c2cn(C(C)C)nn2)cn1 [Example 280, (S)-8-chloro-4-((3-chloro-4-fluorophenyl)amino)-6-(((1-isopropyl-1H-1,2,3-triazol-4-yl)(6-methylpyridin-3-yl)methyl)amino)quinoline-3-carbonitrile]
414	–	CC(C)n1cc([C@@H](Nc2cc(Cl)c3ncc(C#N)c(Nc4ccc(F)c(Cl)c4)c3c2)c2csc(N3CCOCC3)n2)nn1 [Example 301, (S)-8-chloro-4-((3-chloro-4-fluoro-phenyl)amino)-6-(((1-isopropyl-1H-1,2,3-triazol-4-yl)(2-morpholinothiazol-4-yl)methyl)amino)quinoline-3-carbonitrile]
868	–	CC(C)n1cc([C@@H](Nc2cc(Cl)c3ncc(C#N)c(Nc4ccc(F)c(Cl)c4)c3c2)c2cncs2)nn1 [Example 303, (R)-8-chloro-4-((3-chloro-4-fluorophenyl)amino)-6-(((1-isopropyl-1H-1,2,3-triazol-4-yl)(thiazol-5-yl)methyl)amino)quinoline-3-carbonitrile]
1240	–	CC(C)n1cc([C@@H](Nc2cc(Cl)c3ncc(C#N)c(Nc4ccc(F)c(Cl)c4)c3c2)c2cocn2)nn1 [Example 312, (S)-8-chloro-4-((3-chloro-4-fluorophenyl)amino)-6-(((1-isopropyl-1H-1,2,3-triazol-4-yl)(oxazol-4-yl)methyl)amino)quinoline-3-carbonitrile]
1010	–	N#Cc1csc([C@H](Nc2cc(Cl)c3ncc(C#N)c(Nc4ccc(F)c(Cl)c4)c3c2)c2cn(C3COC3)nn2)c1 [Example 339, (R)-8-chloro-4-((3-chloro-4-fluorophenyl)amino)-6-(((4-cyanothiophen-2-yl)(1-(oxetan-3-yl)-1H-1,2,3-triazol-4-yl)methyl)amino)-quinoline-3-carbonitrile]
444	–	CC(C)(C)N1CCC(n2cc([C@@H](Nc3cc(Cl)c4ncc(C#N)c(Nc5ccc(F)c(Cl)c5)c4c3)c3cocn3)nn2)CC1 [Example 348, (S)-6-(((1-(1-(tert-butyl)piperidin-4-yl)-1H-1,2,3-triazol-4-yl)(oxazol-4-yl)methyl)amino)-8-chloro-4-((3-chloro-4-fluorophenyl)amino)-quinoline-3-carbonitrile]
983	–	N#Cc1cnc2c(Cl)cc(N[C@@H](c3cscn3)c3cn(C4CCNCC4)nn3)cc2c1Nc1ccc(F)c(Cl)c1 [Example 354, (S)-8-chloro-4-((3-chloro-4-fluorophenyl)amino)-6-(((1-(piperidin-4-yl)-1H-1,2,3-triazol-4-yl)(thiazol-4-yl)methyl)amino)-quinoline-3-carbonitrile]
746	–	CC(C)(C)n1cc([C@@H](Nc2cc(Cl)c3ncc(C#N)c(Nc4ccc(F)c(Cl)c4)c3c2)c2cscn2)nn1 [Example 361, (S)-6-(((1-(tert-butyl)-1H-1,2,3-triazol-4-yl)(thiazol-4-yl)methyl)-amino)-8-chloro-4-((3-chloro-4-fluorophenyl)amino)quinoline-3-carbonitrile]
